Test results taken from ChEMBL document CHEMBL4007391, “Tackling Fungal Resistance by Biofilm Inhibitors” (J Med Chem, 2017).
pEC50: −log10 of the molar value.

Test system: Candida albicans
Test: Disruption of biofilm of Candida albicans DAY185 assessed as death of biofilm hyphae after 24 hrs by XTT assay
Format: functional

C=C(C)[C@H](CC=C(C)C)C[C@]12C[C@H](CC=C(C)C)C(C)(C)[C@](CC=C(C)C)(C(=O)C(C(=O)c3ccc(O)c(O)c3)=C1O)C2=O
pEC50: 4.30 to 4.52
